Reference: patent US20250304537A1 (Repare Therapeutics Inc., priority 2022, published 2025)
Read-outs that look alike come from different tables or passages of the source.

Assays:
[1] = tested on: PKMYT1 (CDK1 pThr14) in FUOV1 cells; assay: PKMYT1 cell-based activity assay, CDK1 pThr14 AlphaLISA in FUOV1 cells; conditions: read-out: FUOV-1 CDK1 pThr14 IC50
How it was run: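 IC50 was derived from AlphaLISA signal (excitation 680 nm, emission 615 nm) for phospho-Thr14 CDK1 in lysates. The detection antibodies were rabbit anti-pThr14 and mouse anti-total CDK1, each at 5 nM. FUOV1 ovarian cells were exposed to compound for 2 hours before lysis.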

[2] = target: recombinant human Myt1 (full length PKMYT1) (Homo sapiens (Human), UniProt Q99640); assay: Recombinant human Myt1 kinase assay (ADP-Glo); assay type: biochemical; conditions: 10 μM ATP
How it was run: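 ADP-Glo luminescence measured ATP hydrolysis by recombinant full-length PKMYT1 (18 nM) after 60 min at 30 °C with 10 μM ATP. Compounds in 0.5% DMSO were added to the enzyme 15 min before ATP, at 22 °C, in HEPES/MgCl2/MnCl2 buffer. IC50 and percent maximal inhibition were derived.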

Sequence of recombinant human Myt1 (full length PKMYT1) (Q99640 whole entry): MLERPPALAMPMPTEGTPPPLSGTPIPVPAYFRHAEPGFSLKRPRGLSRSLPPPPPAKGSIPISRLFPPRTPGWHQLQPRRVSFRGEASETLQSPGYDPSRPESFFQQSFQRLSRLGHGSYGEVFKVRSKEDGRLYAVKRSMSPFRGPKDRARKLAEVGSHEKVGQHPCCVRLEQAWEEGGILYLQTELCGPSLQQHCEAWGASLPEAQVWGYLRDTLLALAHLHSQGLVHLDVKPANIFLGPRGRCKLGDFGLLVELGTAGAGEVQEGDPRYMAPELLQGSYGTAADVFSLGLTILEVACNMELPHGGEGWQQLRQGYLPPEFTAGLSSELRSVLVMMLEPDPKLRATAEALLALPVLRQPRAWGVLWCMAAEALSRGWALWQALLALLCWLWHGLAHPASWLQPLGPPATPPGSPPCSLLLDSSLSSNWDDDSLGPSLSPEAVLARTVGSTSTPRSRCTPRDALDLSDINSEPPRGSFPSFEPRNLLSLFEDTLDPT

IC50 ([1]; 2 h, 2 h incubation) [nM] | IC50 [2] [nM] | IC50 ([1]; 2 h, 2 h compound incubation) [nM] | IC50 ([1]; 2 h incubation) [nM] | IC50 ([1]; 2 h, 2 hours with compound) [nM] | Structure (SMILES)
289 | 5 | – | – | – | Cc1ccc2[nH]ncc2c1-c1nc(-c2cccc3c2NC(=O)C3)nc(C(N)=O)c1N [Compound 385]
– | 2 | 142 | – | – | Cc1ccc2[nH]ncc2c1-c1cc2c(oc3cccnc32)c(C(N)=O)c1N [Compound 458, 7-amino-8-(5-methyl-1H-indazol-4-yl)benzofuro[3,2-b]pyridine-6-carboxamide]
– | 18 | 1230 | – | – | Cc1ccc2[nH]ncc2c1-c1nc(-c2cc(F)c(F)cc2NC(=O)C2(C(F)(F)F)CCC2)nc(C(N)=O)c1N [Compound 470]
– | 8 | 278 | – | – | Cc1ccc2[nH]ncc2c1-c1nc(-c2ccccc2NC(=O)C2(C)CC2(Cl)Cl)nc(C(N)=O)c1N (stereo not shown) [Compound 463]
– | 2 | – | 68 | – | COc1ccc(-c2cc(-c3c(C)ccc(O)c3C)c(N)c(C(N)=O)n2)nc1 [Compound 61]
1470 | 29 | – | – | – | NC(=O)c1nc(-c2ccccn2)cc(-c2cccc3[nH]ncc23)c1N [Compound 70]
– | 17 | 143 | – | – | Cc1ccc2[nH]ncc2c1-c1nc(-c2cccc3c2NC(=O)C32CC2)nc(C(N)=O)c1N [Compound 399]
20 | 7 | – | – | – | Cc1ccc2[nH]ncc2c1-c1cc(-c2cccc(OCC3(N)CC3)n2)nc(C(N)=O)c1N [Compound 353]
1220 | 25 | – | – | – | Cc1ccc(O)cc1-c1nc(-c2cccc(Cl)c2)nc(C(N)=O)c1N [Compound 29]
970 | 9 | – | – | – | Cc1ccc2[nH]ncc2c1-c1cc(-c2ccnc(N3CCOCC3)n2)nc(C(N)=O)c1N [Compound 198]
– | 6 | 228 | – | – | NC(=O)c1nc(-c2cc(F)c(F)cc2NCC(F)F)nc(-c2c(Cl)ccc3[nH]ncc23)c1N [Compound 468]
150 | 4 | – | – | – | Cc1ccc2[nH]ncc2c1-c1cc(-c2ccnc(OC3(C)COC3)n2)nc(C(N)=O)c1N [Compound 220]
390 | 42 | – | – | – | Cc1ccc2[nH]ncc2c1-c1cc(-c2cccnn2)nc(C(N)=O)c1N [Compound 191]
– | 4 | 17 | – | – | Cc1ccc2[nH]ncc2c1-c1nc(-c2ccc(Cl)cc2NC(=O)C2(C)CC2)nc(C(N)=O)c1N [Compound 438]
– | 17 | 780 | – | – | Cc1ccc2[nH]ncc2c1-c1nc(-c2cccc3c2NC(=O)C3(F)F)nc(C(N)=O)c1N [Compound 395]
137 | 6 | – | – | – | Cc1ccc2[nH]ncc2c1-c1cc(-c2ccnc(Oc3cccnc3)n2)nc(C(N)=O)c1N [Compound 199]
7590 | 29 | – | – | – | Cc1ccc2[nH]ncc2c1-c1cc(-c2ccnc(S(C)(=O)=O)n2)nc(C(N)=O)c1N [Compound 168]
– | 7 | 206 | – | – | Cc1ccc2[nH]ncc2c1-c1nc(-c2cc(F)cc(F)c2NCC(F)F)nc(C(N)=O)c1N [Compound 436]
– | 5 | 13 | – | – | Cc1ccc(-c2nc(C(N)=O)c(N)c(-c3c(C)ccc4[nH]ncc34)n2)c(NC(=O)C2(C)CC2)c1 [Compound 433]

IC50 ([1]; 2 h, 2 h incubation) [nM] | IC50 [2] [nM] | IC50 ([1]; 2 h, 2 h compound incubation) [nM] | IC50 ([1]; 2 h incubation) [nM] | IC50 ([1]; 2 h, 2 hours with compound) [nM] | Structure (SMILES)
21 | 3 | – | – | – | Cc1ccc2[nH]ncc2c1-c1nc(-c2ccccc2NC(=O)C(C)(C)C)nc(C(N)=O)c1N [Compound 377]
820 | 137 | – | – | – | NC(=O)c1nc(-c2ccccc2)nc(-c2cc(F)cc3[nH]ncc23)c1N [Compound 122]
99 | 10 | – | – | – | Cc1ccc2[nH]ncc2c1-c1cc(-c2cccc(OCCN3CCCC3)n2)nc(C(N)=O)c1N [Compound 180]
– | 2 | – | – | 221 | Cc1ccc2[nH]ncc2c1-c1nc(-c2cccnc2N[C@H](c2cccnc2)C(F)F)nc(C(N)=O)c1N [Compound 936]
56 | 5 | – | – | – | COC(COc1nccc(-c2cc(-c3c(C)ccc4[nH]ncc34)c(N)c(C(N)=O)n2)n1)C1CC1 (stereo not shown) [Compound 391]
943 | 10 | – | – | – | Cc1ccc(O)cc1-c1nc(-c2ccnc(N)c2)nc(C(N)=O)c1N [Compound 4]
– | 5 | 233 | – | – | Cc1ccc2[nH]ncc2c1-c1nc(-c2cnccc2NC(=O)OC(C)(C)C)nc(C(N)=O)c1N [Compound 465]
570 | 26 | – | – | – | Cc1cccc(-c2nc(C(N)=O)c(N)c(-c3c(C)ccc4[nH]ncc34)n2)c1 [Compound 101]
278 | 6 | – | – | – | Cc1ccc2[nH]ncc2c1-c1cc(-c2ccnc(Oc3ccccc3)n2)nc(C(N)=O)c1N [Compound 173]
983 | 7 | – | – | – | COC(COc1cccc(-c2cc(-c3c(C)ccc4[nH]ncc34)c(N)c(C(N)=O)n2)n1)C1CC1 (stereo not shown) [Compound 344]
– | 5 | 152 | – | – | Cc1ccc2[nH]ncc2c1-c1nc(-c2cccc3cnsc23)nc(C(N)=O)c1N [Compound 396]
259 | 8 | – | – | – | Cc1ccc(O)c(C)c1-c1cc(-c2ccccn2)cc(C(N)=O)c1N [Compound 80]
507 | 7 | – | – | – | Cc1ccc2[nH]ncc2c1-c1cc(-c2cccc(OCc3cncnc3)n2)nc(C(N)=O)c1N [Compound 262]
51 | 6 | – | – | – | Cc1ccc2[nH]ncc2c1-c1cc(-c2cccc(OCc3ncccn3)n2)nc(C(N)=O)c1N [Compound 184]
– | 10 | 397 | – | – | Cc1ccc2[nH]ncc2c1-c1nc(-c2cccnc2Nc2ccccc2F)nc(C(N)=O)c1N [Compound 610]
– | < 3 | – | – | > 10000 | Cc1ccc2[nH]ncc2c1-c1nc(-c2cccnc2NC(=O)C(C)(C)C)c(F)c(C(N)=O)c1N [Compound 905, 5-amino-3-fluoro-6-(5-methyl-1H-indazol-4-yl)-2′-pivalamido-[2,3′-bipyridine]-4-carboxamide]
– | 4 | – | 191 | – | Cc1ccc2[nH]ncc2c1-c1cc(-c2cccc(OCc3ncco3)n2)nc(C(N)=O)c1N [Compound 267]
– | 7 | 104 | – | – | Cc1ccc2[nH]ncc2c1-c1nc(-c2ccccc2NC(C)(C)C)nc(C(N)=O)c1N [Compound 451]
– | 2 | 14 | – | – | CC(C)(C)C(=O)Nc1ccccc1-c1nc(C(N)=O)c(N)c(-c2c(Cl)ccc3[nH]ncc23)n1 [Compound 403]

IC50 ([1]; 2 h, 2 h incubation) [nM] | IC50 [2] [nM] | IC50 ([1]; 2 h, 2 h compound incubation) [nM] | IC50 ([1]; 2 h incubation) [nM] | IC50 ([1]; 2 h, 2 hours with compound) [nM] | Structure (SMILES)
107 | 7 | – | – | – | Cc1ccc(O)c(C)c1-c1cc(-c2cncs2)nc(C(N)=O)c1N [Compound 82]
– | 5 | 105 | – | – | COC1(C(=O)Nc2ccccc2-c2nc(C(N)=O)c(N)c(-c3c(C)ccc4[nH]ncc34)n2)CC1 [Compound 432]
– | 3 | 41 | – | – | Cc1nccc(Nc2cc(C#N)ccc2-c2nc(C(N)=O)c(N)c(-c3c(C)ccc4[nH]ncc34)n2)n1 [Compound 766]
– | 8 | – | 90 | – | Cc1ccc(O)c(C)c1-c1cc(-c2ccncn2)nc(C(N)=O)c1N [Compound 79]
– | 8 | – | – | 62 | Cc1ccc2[nH]ncc2c1-c1nc(-c2cccnc2NS(C)(=O)=O)nc(C(N)=O)c1N [Compound 804, 5-amino-6-(5-methyl-1H-indazol-4-yl)-2-(2-(methylsulfonamido)pyridin-3-yl)pyrimidine-4-carboxamide]
– | 2 | – | 168 | – | COc1cccc(-c2cc(-c3c(C)ccc(O)c3C)c(N)c(C(N)=O)n2)n1 [Compound 66]
– | 17 | – | – | 447 | Cc1ccc2[nH]ncc2c1-c1nc(-c2cccnc2Nc2cscn2)nc(C(N)=O)c1N [Compound 894]
– | 3 | 26 | – | – | Cc1ccc2[nH]ncc2c1-c1nc(-c2cc(F)c(F)cc2NC(=O)C2(C#N)CC2)nc(C(N)=O)c1N [Compound 477]
996 | 8 | – | – | – | Cc1ccc2[nH]ncc2c1-c1cc(-c2ccnc(OCCc3ncc[nH]3)n2)nc(C(N)=O)c1N [Compound 240]
– | 7 | – | 401 | – | Cc1ccc(O)c(C)c1-c1nc(-c2ccnnc2)cc(C(N)=O)c1N [Compound 88]
167 | 6 | – | – | – | Cc1nnc(-c2cccc(-c3nc(C(N)=O)c(N)c(-c4c(C)ccc5[nH]ncc45)n3)c2)o1 [Compound 290]
136 | 3 | – | – | – | Cc1ccc2[nH]ncc2c1-c1cc(-c2cccc(N[C@H](CO)c3ccccc3)n2)nc(C(N)=O)c1N [Compound 274]
575 | 5 | – | – | – | Cc1ccc(O)c(C)c1-c1cc(-c2cc(F)cc(F)c2)nc(C(N)=O)c1N [Compound 16, 3-amino-6-(3,5-difluorophenyl)-4-(3-hydroxy-2,6-dimethylphenyl)picolinamide]
752 | 8 | – | – | – | Cc1ccc2[nH]ncc2c1-c1cc(-c2cccc(OCc3cnccn3)n2)nc(C(N)=O)c1N [Compound 250]
560 | 21 | – | – | – | Cc1ccc(O)cc1-c1nc(-c2nccs2)nc(C(N)=O)c1N [Compound 3, 5-amino-6-(5-hydroxy-2-methylphenyl)-2-(thiazol-2-yl)pyrimidine-4-carboxamide]
60 | 3 | – | – | – | Cc1ccc(O)c(C)c1-c1cc(-c2ccns2)nc(C(N)=O)c1N [Compound 38]
– | 6 | 158 | – | – | Cc1ccc2[nH]ncc2c1-c1nc(-c2cccc(F)c2NC(=O)C2(C)CC2)nc(C(N)=O)c1N [Compound 456]
204 | 5 | – | – | – | Cc1ccc2[nH]ncc2c1-c1cc(-c2cccc(O[C@H](C)c3ncccn3)n2)nc(C(N)=O)c1N [Compound 254]
